Measured values published in US7387796B2, “Stable compositions of S-adenosyl-l-methionine with dextran” (priority 2002, dated 2008).

Experiments:
[1] = 10 ng/ml injected; sample left at room temperature in the light for 12 months, no special protection
[2] = oral, alcoholic liver cirrhosis, compared with placebo treated group; cited from earlier work
[3] = patients with Alzheimer's disease, preliminary study; cited from earlier work
[4] = oral administration, patients with and without liver disease; cited from earlier work
[5] = oral administration, intrahepatic cholestasis; cited from earlier work
[6] = oral administration, short term trial; cited from earlier work
[7] = in vivo; cited from earlier work

C[S+](CC[C@H](N)C(=O)[O-])C[C@H]1O[C@@H](n2cnc3c(N)ncnc32)[C@H](O)[C@@H]1O (some centres unmarked) [SAM-e, S-adenosyl-1-methionine]
Area of HPLC peak [1]: 189251
conc. [1]: 10 ng/mL
overall mortality and/or progression to liver transplant [2]: 12%
cognitive effect [3]: cognitive improvement
liver glutathione levels [4]: increases in liver glutathione levels
pruritus and biochemical markers of cholestasis [5]: improvements in both the pruritus as well as the biochemical markers of cholestasis
clinical effect in primary fibromyalgia [6]: significant improvement
toxicity in clinical use [7]: absence of toxicity
